Reference: patent US20170143674A1, “Use of Glutaryl Histamine for the Treatment of Respiratory Tract Diseases” (LTD "VALENTA-INTELLEKT", priority 2011, published 2017)

Key:
Assay in all cases: animal or person
Format in all cases: in vivo, mice
[1] = test system: Escherichia coli (mouse-adapted strain 4300)
Procedure: Escherichia coli (mouse-adaptedstrain 4300, Institute collection) was used as an infectious agent. Mice were infected intravenously.
Firstly, there were determined a lethal dose (LD100) of Escherichia coli to be intravenously administered to this line of mice with a certain weight. Fatal cases among mice were registered every day for ten days. […] For this purpose, mice were housed into cages (10 animals per cage) and infected with a lethal dose of Escherichia coli. One hour after each mouse was administered orally levofloxacin in doses of 1, 2, 4, 6, 8, 10, and 12 mg/kg. A group of mice infected with a lethal dose of Escherichia coli without the treatment was considered as a control group. Fatal cases among mice were registered every day for ten days.
The next step of the experiment was to study an effect of combined administration of glutaryl histamine and levofloxacin on a model of E. coli sepsis in mice.
(§1) In the experiment, mice were housed in following groups (10 animals per cage):
Glutaryl histamine was administered orally in the corresponding doses to mice of groups 3, 4, 5, 6, 7, and 8 for 5 days. Five day after, all groups of mice were intravenously administered 0.2 ml of Escherichia coli in the lethal dose. […] After infection and administration of levofloxacin, glutaryl histamine was administered to mice of groups 3-8 for additional 5 days. During the experiment, the animals were observed every day, and fatal cases were registered (see Table 14).

[2] = test system: Staphylococcus aureus (mouse-adapted strain 10)
Procedure: The tested medicament was glutaryl histamine in doses of 15, 30 and 45 mg/kg. Solutions of the tested medicament for oral administration were prepared ex tempore. Levofloxacin (in oral administration) was used as a therapeutic preparation since this substance was the most experimentally studied antibiotic approved in clinical practice many years ago.
Staphylococcus aureus (mouse-adaptedstrain 10) was used as an infectious agent. Mice were infected intravenously.
Firstly, there was determined a lethal dose (LD100) of staphylococcus to be intravenously administered to this line of mice having a certain weight. Fatal cases among mice were registered every day for ten days. The lethal dose was 3×10^8 CFU/mouse. […] For this purpose, mice were housed into cages (10 animals per cage) and infected with a lethal dose of staphylococcus. One hour after each mouse was administered orally levofloxacin in doses of 1, 2, 4, 6, 8, 10, and 12 mg/kg. A group of mice infected with a lethal dose of staphylococcus without the treatment was considered as a control group. Fatal cases among mice were registered every day for ten days.
The next step of the experiment was to study an effect of combined administration of glutaryl histamine and levofloxacin on a model of staphylococcal sepsis in mice.
as §1
Glutaryl histamine was administered orally in the corresponding doses to the mice of groups 3, 4, 5, 6, 7, and 8 for 5 days. Five day after, all groups of mice were intravenously administered with 0.2 ml of Staphylococcus aureus in the lethal dose. […] After infection and administration of levofloxacin, glutaryl histamine was administered to mice of groups 3-8 for additional 5 days. During the experiment, the animals were observed every day, and fatal cases were registered (see Table 13).

[3] = test system: Staphylococcus aureus (mouse-adapted MRSA strain 5)
Procedure: Tested medicament was glutaryl histamine in doses of 15, 30 and 45 mg/kg. Solutions of the tested medicament for oral administration were prepared ex tempore in stream water. Ampicillin (in intravenous administration) was used as a therapeutic preparation since it is the most experimentally studied antibiotic approved in clinical practice many years ago. Levofloxacin was used as a positive control (in oral administration).
Staphylococcus aureus was used as an infectious agent (mouse-adapted MRSA strain 5, collection from GU NIINA im.G.F. Gauze RAMN).
Firstly, there was determined a lethal dose (LD100) of staphylococcus when intravenously administered to this line of mice with a certain weight. Fatal cases among mice were registered every day for ten days. […] After that, there was determined the dose of ampicillin providing a survival rate of 20% of mice infected with staphylococcus MRSA taken in a lethal dose. For this purpose, mice were housed into cages by 10 animals and infected with a lethal dose of staphylococcus. One hour later, each mouse was intravenously administered ampicillin in doses of 30, 60, 90, 120, 150, and 180 mg/kg. A group of mice infected with a lethal dose of staphylococcus without the treatment was considered as a control group. Fatal cases among mice were registered every day for ten days.
The next step of the experiment was to study an effect of combined administration of glutaryl histamine with ampicilline on a model of MRSA-induced staphylococcal sepsis in mice.
In the experiment, the mice were housed in following groups of 10 animals per cage: […]

[4] = levofloxacin 20 mg/kg, tenth day
[5] = levofloxacin 2.65 mg/kg, tenth day
[6] = group 3: levofloxacin 4 mg/ml per os one time

C[C@H]1COc2c(N3CCN(C)CC3)c(F)cc3c(=O)c(C(=O)O)cn1c23 [levofloxacin, reference compound]
2.97 mg/kg: ED50 ([1]; Escherichia coli, po, read-out: ED50 (50% effective dose))
5/5: died/survived animals ([1]; day 8, levofloxacin 20 mg/kg) | died/survived animals ([1]; day 9, levofloxacin 20 mg/kg) | died/survived animals ([1]; day 10, levofloxacin 20 mg/kg) | died/survived animals ([2]; day 8, levofloxacin 2.65 mg/kg) | died/survived animals ([2]; day 9, levofloxacin 2.65 mg/kg) | died/survived animals ([2]; day 10, levofloxacin 2.65 mg/kg) | died/survived animals ([3]; day 8, group 3: levofloxacin 4 mg/ml per os one time) | died/survived animals ([3]; day 9, group 3: levofloxacin 4 mg/ml per os one time) | died/survived animals ([3]; day 10, group 3: levofloxacin 4 mg/ml per os one time)
4 mg/kg: ED50 ([3]; Staphylococcus aureus, MRSA, po)
3/7: died/survived animals ([1]; day 6, levofloxacin 20 mg/kg) | died/survived animals ([3]; day 6, group 3: levofloxacin 4 mg/ml per os one time)
50%: Mortality rate (%) [1, 4] | Survival rate (%) [1, 4] | Mortality rate (%) [2, 5] | Survival rate (%) [2, 5] | Mortality rate (%) [3, 6] | Survival rate (%) [3, 6]
1/9: died/survived animals ([1]; day 4, levofloxacin 20 mg/kg) | died/survived animals ([2]; day 3, levofloxacin 2.65 mg/kg) | died/survived animals ([3]; day 4, group 3: levofloxacin 4 mg/ml per os one time)
4/6: died/survived animals ([1]; day 7, levofloxacin 20 mg/kg) | died/survived animals ([2]; day 5, levofloxacin 2.65 mg/kg) | died/survived animals ([2]; day 6, levofloxacin 2.65 mg/kg) | died/survived animals ([2]; day 7, levofloxacin 2.65 mg/kg) | died/survived animals ([3]; day 7, group 3: levofloxacin 4 mg/ml per os one time)
2/8: died/survived animals ([1]; day 5, levofloxacin 20 mg/kg) | died/survived animals ([2]; day 4, levofloxacin 2.65 mg/kg) | died/survived animals ([3]; day 5, group 3: levofloxacin 4 mg/ml per os one time)
2.65 mg/kg: ED50 ([2]; Staphylococcus aureus, po, read-out: ED50 (50% effective dose))
0/10: died/survived animals ([1]; day 1, levofloxacin 20 mg/kg) | died/survived animals ([1]; day 2, levofloxacin 20 mg/kg) | died/survived animals ([1]; day 3, levofloxacin 20 mg/kg) | died/survived animals ([2]; day 1, levofloxacin 2.65 mg/kg) | died/survived animals ([2]; day 2, levofloxacin 2.65 mg/kg) | died/survived animals ([3]; day 1, group 3: levofloxacin 4 mg/ml per os one time) | died/survived animals ([3]; day 2, group 3: levofloxacin 4 mg/ml per os one time) | died/survived animals ([3]; day 3, group 3: levofloxacin 4 mg/ml per os one time)
